Data on 3 molecules can be found in patent US10076504B2, “Glucagon antagonists” (Ligand Pharmaceuticals, Inc., priority 2014, dated 2018).

For data set [1], the target named is T1, human glucagon receptor (Homo sapiens, UniProt P47871).
T1 construct: host or cells: Either human liver membranes or membranes of an unnamed recombinant cell line
Description: Human glucagon receptor binding assay. The following applies: displacement of [125I]glucagon from human glucagon receptor; read-out: Hu IC50. How it is done:
Compounds provided herein are dissolved in a suitable solvent (e.g., dimethylsulfoxide) at a concentration of 10 mM and then diluted in buffer (e.g., 50 mM Hepes, pH 7.4, 5 mM MgCl2, 1 mM CaCl2, and 0.2% BSA) to concentrations ranging from 1 nM to 100 μM. Compounds (20 μL/well) and [^125I]glucagon at the final concentration of 0.125 nM (20 μl/well) (Perkin Elmer) are added to and mixed in wells of a 96-well plate (Costar, Corning) containing 120 μL of buffer. Next, an appropriate aliquot of a membrane preparation containing the human glucagon receptor (isolated from human liver samples or obtained from a recombinant cell line) is added to the wells. The binding mixtures are incubated for 2 hrs at room temperature. In the meantime, a MultiScreen 96-well filter plate (Millipore) is treated with 200 μL of the buffer, which is vacuumed through the filter just before the binding mixtures are transferred to the plate. At the end of incubation, binding mixtures are transferred to the wells of the MultiScreen 96-well filter plate and filtered through by applying vacuum. The plate is washed once with 200 μL per well of the buffer, and the filters are dried and counted using a gamma counter.
The column marked “stereo” indicates whether the tested compound tested was racemic or the R-isomer (rac=racemic).
Background: In a radioligand displacement assay an active substance lowers the binding of a labelled ligand.

Data set [2] in a line: Single ascending dose study, safety and tolerability. It counts as in vivo, human. The following applies: single oral doses 2 to 480 mg in NHV, 40 mg in T2DM subjects. Here is the method:
(§1) Oral doses of IIIa were administered to normal healthy volunteers (NHV) and subjects with type 2 diabetes mellitus (T2DM). A single center, randomized, double-blind, placebo-controlled single ascending dose study was done in both NHV (n=48) and T2DM subjects (n=8). Dose escalation only occurred after review of safety and tolerability data from previous dose levels (n=8/cohort; 2-placebo & 6-IIIa). Dosing of the T2DM cohort was initiated only after the equivalent dose had been administered to NHV and safety data had been reviewed. All subjects were administered IIIa in the morning after an overnight fast with the exception of the NHV in the 40 mg cohort. NHV subjects in the 40 mg cohort initially received IIIa in a fasted state. Following a 3 week washout period, IIIa was readministered after breakfast at 40 mg to determine the effects of food consumption on pharmacokinetics.
(§2) This was a single center, randomized, double-blind, placebo-controlled single ascending dose study in both normal healthy volunteers (NHV) (n=48) and subjects with type 2 diabetes mellitus (T2DM) (n=8). All subjects were administered Formula IIIa as a solution formulated with Captisol® after an overnight fast with the exception of the NHV in the 40 mg cohort. The NHV 40 mg cohort initially received Formula IIIa in a fasted state. Following a washout period, subjects received 40 mg Formula IIIa after breakfast to explore the effects of food consumption on pharmacokinetics.
In type 2 diabetes mellitus (T2DM), inappropriately elevated levels of glucagon exacerbate hyperglycemia and its associated complications. Not wishing to be bound to a particular theory, it has been observed that antagonism of glucagon action reduces blood glucose levels and hemoglobin A1c in patients with T2DM. The novel, selective, orally bioavailable glucagon receptor antagonist, Formula IIIa (below), was investigated regarding its pharmacokinetics (PK), safety, and pharmacodynamics (PD) in a first-in-human, ascending, single-dose, double blind, placebo-controlled study in normal healthy (NH) and T2DM subjects (NCT01919684).

Data set [3] can be described thus: Solubility in water, buffers, simulated fluids and Captisol. It counts as physicochemical. The note with it: thermodynamic from solid; for solubility: aqueous with cosolvent or surfactant or cyclodextrin, ambient conditions, UV after 2-3day equilibration; for solubility at 24 h: 25° C., HPLC after 24-hour equilibration. How it is done:
Solubility of a sodium salt of Formula IIIa (below) was determined in water and at various pH values and simulated intestinal fluids using HPLC and UV analysis with and without modified beta-cyclodextrin (Captisol®). Phase solubility was used to estimate the Captisol®: Formula IIIa binding constant. The influence of Captisol® on oral absorption was modelled as shown below. The effect of Captisol® on solution stability was determined by HPLC. Plasma levels of Formula IIIa were measured by LCMS/MS.

A short description of data set [4]: Single ascending dose study, pharmacokinetics. It counts as in vivo, human. The following applies: 2 to 480 mg oral, human subjects. Here is the method:
as §1, §2
Plasma levels of Formula IIIa were measured by validated LC-MS/MS method. Formula IIIa was well absorbed after oral administration with peak plasma concentrations reached approximately 5-8 hours post dose. Consistent with preclinical predictions, clearance was slow and Formula IIIa was not detected in the urine.

Structures can show the parent of a compound that is named as a salt.

T1 sequence (P47871 26-477): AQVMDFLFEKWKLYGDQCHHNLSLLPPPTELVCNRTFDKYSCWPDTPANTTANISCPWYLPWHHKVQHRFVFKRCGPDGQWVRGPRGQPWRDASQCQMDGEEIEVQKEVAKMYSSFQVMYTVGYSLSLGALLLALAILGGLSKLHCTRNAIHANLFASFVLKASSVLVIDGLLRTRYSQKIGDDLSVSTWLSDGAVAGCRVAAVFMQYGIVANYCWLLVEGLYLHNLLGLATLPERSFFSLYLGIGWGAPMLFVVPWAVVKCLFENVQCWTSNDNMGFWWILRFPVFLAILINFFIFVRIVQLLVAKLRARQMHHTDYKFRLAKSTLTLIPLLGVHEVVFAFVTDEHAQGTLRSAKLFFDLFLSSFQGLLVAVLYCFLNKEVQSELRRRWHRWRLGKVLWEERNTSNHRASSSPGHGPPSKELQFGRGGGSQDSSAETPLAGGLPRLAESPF

The term IC50 denotes the concentration needed to halve the response being measured. In the case of `Cc1cc(Cl)ccc1-c1ccc(NC(=O)C(Cc2ccc(C(=O)NCCS(=O)(=O)O)cc2)c2ccc(C3CCC(C(C)(C)C)CC3)cc2)cc1` (stereo not drawn), the IC50 in data set [1] was 9 nM.
`Cc1cc(C(F)(F)F)ccc1-c1ccc(NC(=O)C(Cc2ccc(C(=O)NCCS(=O)(=O)O)cc2)c2ccc(C3=CCC(C)(C)CC3)cc2)cc1` (racemic): in data set [1], the IC50 was determined as 15 nM.
For orientation: solubility means the concentration that dissolves in the medium under given conditions. Read a high solubility as much dissolved substance. Turning to `Cc1cc(C)c(C2C=CC(NC(=O)[C@H](Cc3ccc(C(=O)NCCS(=O)(=O)O)cc3)c3ccc(-c4ccc(C(C)(C)C)cc4)cc3)=CC2)c(C)c1` (stereo partly drawn) [Formula IIIa sodium salt], in data set [2], the tolerability entry was “well tolerated”. The solubility in data set [3] (15% w/v Captisol) is 11530 ± 40 µg/mL; in data set [3] (35% w/v Captisol) it was 32900 ± 440 µg/mL. Further, the solubility at 24 h in data set [3] (simulated gastric fluid, 0.01N HCL) is 70 µg/mL; in data set [3] (simulated gastric fluid, 0.1N HCL), 60 µg/mL; in data set [3] (Fasted state simulated intestinal fluid (FaSSIF)), 210 µg/mL; in data set [3] (Fed state simulated intestinal fluid (FeSSIF)), 6540 ± 190 µg/mL; in data set [3] (Simulated gastric fluid (SGF)), 40 ± 10 µg/mL; in data set [3] (Water) it was 210 ± 10 µg/mL. The “plasma exposure versus dose” value in data set [4] was “dose dependent increases”.
